Experimental data from patent publication US11753411B2, “Substituted pyrazolo[1,5-a]pyrimidines as TYK2 pseudokinase ligands” (Ventyx Biosciences, Inc., priority 2019, dated 2023).

What follows are compounds tested on IFN-a/Jak1 Tyk2 (assay: Co-stimulation assay in lysed whole blood: IFNa (JAK1/TYK2) stimulated STAT1 phosphorylation). Settings: Homo sapiens, 20 min, 100 ng/mL IFNa (with 10 ng/mL GM-CSF), pSTAT by flow cytometry.
Assay type: cell-based
Experimental: Example 12: Co-Stimulation Assay in Lysed Whole Blood; JAK2: GM-CSF Stimulated STAT5 Phosphorylation and JAK1/TYK2 Stimulated STAT1 Phosphorylation Assay
Human Blood Lysis Using Abcam's RBC Lysis Buffer
Dilute RBC lysis buffer to 1× in distilled water. Add 2 mL blood to 38 mL of 1×RBC-lysis buffer. Incubate for 15 mins at RT, in dark. Spin at 300 g, 5 mins, to collect the pellet. Re-lyse if necessary. Re-suspend pellet in 5 mL of cRPMI.
Compound and Cytokine Treatment
Aliquot 80 μL of lysed human blood in to wells of 96 deep-well plate. Add 10 μl of (10× conc.) of different concentrations of compounds to all wells except controls (unstained and unstimulated) and mix it with the help of 100 uL multichannel. Add 10 uL of RPMI media in controls. For dilution of compounds and dilution range please refer Appendix. Incubate on water bath or CO2 incubator for 1 hour at 37° C. Add 10 μl of (10× conc.) of cytokine mix (GM-CSF and IFNa) (final conc.10 ng/mL of GM-CSF and 100 ng/mL of IFNa) to each well except unstimulated and unstained controls and incubate further for 20 minutes on water bath at 37° C.
Add 900 μL of prewarmed 1× Fix/Lyse solution (Appendix) and mix it properly using 1000 μl multichannel, incubate further on water bath at 37° C. for 10 minutes (which includes time of addition). Centrifuge at 800×g for 5 minutes at 40° C.; remove 900 uL of supernatant and add 900 μL of 1×PBS. Centrifuge at 800×g for 5 minutes at 40° C., remove 900 μL of supernatant. Wash one more time with 900 μL of PBS (optional) and resuspend pellets in 100 uL of PBS.
Disrupt the pellet by gentle tapping and resuspend in 1000 μL of BD Phosflow Perm Buffer III and incubate plate on ice for 30 minutes. Centrifuge plate at 800×g for 5 minutes at 40° C. Wash two more times with 1000 μL of BD Pharmingen Stain Buffer.
Disrupt the pellet by gentle tapping. Resuspend pellets in 100 uL of Stain Buffer and add 5 μL of pSTAT5_AF488 Ab and 5 uL of pSTAT_PE in all wells except unstained control and mix properly using 200 μl multichannel, incubate overnight at […]. Add 900 μL of wash buffer and centrifuge at 1800 rpm for 3 minutes at 40° C. Wash one more time with 1000 μL of BD Pharmingen Stain Buffer. Finally resuspend the pellet in 300 uL of BD Pharmingen Stain Buffer. Transfer the cells to 96-well v-bottom plate and acquire the cells in Beckman Coulter CytExpert. Acquiring cells in Flow Cytometer: Keep the threshold value to 250 and cell concentration should not exceed 100-500 cells/μL. Acquire at least 5,000-10,000 cells.
RPMI 1640 Complete Medium: RPMI 1640 media+10% FBS.
Cytokine dilution: 1) GM-CSF Stock at 100 ug/mL. Prepare an intermediate dilution of 1 ug/mL by adding 2 uL of stock into 198 uL of cRPMI. Further dilute to 100 ng/mL by adding 100 uL of the intermediate stock to 900 uL of cRPMI. 2) IFNa Stock at 200 ug/mL. Dilute IFNa stock 1:200 by adding 5 uL of stock into the 1000 uL of 100 ng/mL GM-CSF working stock as above to give a combined working stock of 1000 ng/mL of IFNa and 100 ng/mL GM-CSF (10×). Keep it on ice until used.
Lyse/Fix buffer preparation: Dilute 5× Lyse/Fix buffer to 1× using MQ water and keep at 37° C. until used.
BD Phosflow perm buffer III: Keep on ice/fridge.

Structure (SMILES) | IC50
CNc1cc(Nc2cc(C#N)cc3c2OCCO3)nc2c(NC(=O)NC3CCC3)cnn12 [Compound 106, 1-(5-((7-cyano-2,3-dihydrobenzo[b][1,4]dioxin-5-yl)amino)-7-(methylamino)pyrazolo[1,5-a]pyrimidin-3-yl)-3-cyclobutylurea] | 1000 to 10000 nM
CNC(=O)Nc1cnn2c(NC)cc(Nc3cccc4c3OC(C)(C)O4)nc12 [Compound 116, 1-(5-((2,2-dimethylbenzo[d][1,3]dioxol-4-yl)amino)-7-(methylamino)pyrazolo[1,5-a]pyrimidin-3-yl)-3-methylurea] | 1000 to 10000 nM
CNC(=O)Nc1cnn2c(NC)cc(Nc3cccc4c3CCCC4)nc12 [Compound 170, 1-methyl-3-(7-(methylamino)-5-((5,6,7,8-tetrahydronaphthalen-1-yl)amino)pyrazolo[1,5-a]pyrimidin-3-yl)urea] | 1000 to 10000 nM
CNC(=O)Nc1cnn2c(NC)cc(Nc3cccc4c3NC(=O)CO4)nc12 [Compound 95, 1-methyl-3-(7-(methylamino)-5-((3-oxo-3,4-dihydro-2H-benzo[b][1,4]oxazin-5-yl)amino)pyrazolo[1,5-a]pyrimidin-3-yl)urea] | 1000 to 10000 nM
CNC(=O)Nc1cnn2c(NC)cc(Nc3cc(C#N)cc4c3OCCO4)nc12 [Compound 83, 1-(5-((7-cyano-2,3-dihydrobenzo[b][1,4]dioxin-5-yl)amino)-7-(methylamino)pyrazolo[1,5-a]pyrimidin-3-yl)-3-methylurea] | < 1000 nM
CNc1cc(Nc2cc(OC)cc3c2OCCO3)nc2c(NC(=O)NC3CC3)cnn12 [Compound 84, 1-cyclopropyl-3-(5-((7-methoxy-2,3-dihydrobenzo[b][1,4]dioxin-5-yl)amino)-7-(methylamino)pyrazolo[1,5-a]pyrimidin-3-yl)urea] | 1000 to 10000 nM
[2H]C([2H])([2H])Nc1cc(-c2cn(C3CCOC3)c3ncccc23)nc2c(NC(=O)NC)cnn12 (stereo not shown) [Compound 75, 1-methyl-3-(7-((methyl-d3)amino)-5-(1-(tetrahydrofuran-3-yl)-1H-pyrrolo[2,3-b]pyridin-3-yl)pyrazolo[1,5-a]pyrimidin-3-yl)urea] | < 1000 nM
CNC(=O)Nc1cnn2c(NC)cc(N(C)c3ccccc3)nc12 [Compound 159, 1-methyl-3-(5-(methyl(phenyl)amino)-7-(methylamino)pyrazolo[1,5-a]pyrimidin-3-yl)urea] | ≥ 10000 nM
CNC(=O)Nc1cnn2c(NC)cc(Nc3cc(OC)cc4c3OCCO4)nc12 [Compound 81, 1-(5-((7-methoxy-2,3-dihydrobenzo[b][1,4]dioxin-5-yl)amino)-7-(methylamino)pyrazolo[1,5-a]pyrimidin-3-yl)-3-methylurea] | < 1000 nM
CNc1cc(Nc2cccc3cccnc23)nc2c(NC(=O)NCC#N)cnn12 [Compound 127, 1-(cyanomethyl)-3-(7-(methylamino)-5-(quinolin-8-ylamino)pyrazolo[1,5-a]pyrimidin-3-yl)urea] | < 1000 nM
CNC(=O)Nc1cnn2c(NC)cc(Nc3cccc4occc34)nc12 [Compound 104, 1-(5-(benzofuran-4-ylamino)-7-(methylamino)pyrazolo[1,5-a]pyrimidin-3-yl)-3-methylurea] | < 1000 nM
CNC(=O)Nc1cnn2c(NC)cc(Nc3cc(C)cc(C)c3)nc12 [Compound 152, 1-(5-((3,5-dimethylphenyl)amino)-7-(methylamino)pyrazolo[1,5-a]pyrimidin-3-yl)-3-methylurea] | < 1000 nM
CNC(=O)Nc1cnn2c(NC)cc(Nc3c(C)cccc3OC)nc12 [Compound 66, 1-(5-((2-methoxy-6-methylphenyl)amino)-7-(methylamino)pyrazolo[1,5-a]pyrimidin-3-yl)-3-methylurea] | 1000 to 10000 nM
CNc1cc(-c2cn(C3CCOCC3)c3ncccc23)nc2c(NC(=O)N[C@H]3CC[C@H]3O)cnn12 [Compound 56, 1-((1S,2R)-2-hydroxycyclobutyl)-3-(7-(methylamino)-5-(1-(tetrahydro-2H-pyran-4-yl)-1H-pyrrolo[2,3-b]pyridin-3-yl)pyrazolo[1,5-a]pyrimidin-3-yl)urea] | ≥ 10000 nM
CNC(=O)Nc1cnn2c(NC)cc(Nc3cccc4c3OC(F)(F)O4)nc12 [Compound 115, 1-(5-((2,2-difluorobenzo[d][1,3]dioxol-4-yl)amino)-7-(methylamino)pyrazolo[1,5-a]pyrimidin-3-yl)-3-methylurea] | 1000 to 10000 nM

Results, then the compound that gave them:

IC50 | Structure (SMILES)
< 1000 nM | CNc1cc(Nc2cccc3c2OCCO3)nc2c(NC(=O)NC3CC3)cnn12 [Compound 139, 1-cyclopropyl-3-(5-((2,3-dihydrobenzo[b][1,4]dioxin-5-yl)amino)-7-(methylamino)pyrazolo[1,5-a]pyrimidin-3-yl)urea]
1000 to 10000 nM | CNc1cc(Nc2cc(C(F)(F)F)cc3c2OCCO3)nc2c(NC(=O)NC3CC3)cnn12 [Compound 82, 1-cyclopropyl-3-(7-(methylamino)-5-((7-(trifluoromethyl)-2,3-dihydrobenzo[b][1,4]dioxin-5-yl)amino)pyrazolo[1,5-a]pyrimidin-3-yl)urea]
< 1000 nM | [2H]C([2H])([2H])NC(=O)Nc1cnn2c(NC)cc(Nc3cccc4c3OCCO4)nc12 [Compound 144, 1-(5-((2,3-dihydrobenzo[b][1,4]dioxin-5-yl)amino)-7-(methylamino)pyrazolo[1,5-a]pyrimidin-3-yl)-3-(methyl-d3)urea]
< 1000 nM | CNc1cc(Nc2cc(C#N)cc3c2OCCO3)nc2c(NC(=O)N[C@@H]3C[C@@H]3F)cnn12 [Compound 33, 1-(5-((7-cyano-2,3-dihydrobenzo[b][1,4]dioxin-5-yl)amino)-7-(methylamino)pyrazolo[1,5-a]pyrimidin-3-yl)-3-((1R,2S)-2-fluorocyclopropyl)urea]
< 1000 nM | [2H]C([2H])([2H])Nc1cc(Nc2cc(F)cc3c2OC([2H])([2H])C([2H])([2H])O3)nc2c(NC(=O)N[C@@H]3C[C@@H]3F)cnn12 [Compound 181, 1-(5-((7-fluoro-2,3-dihydrobenzo[b][1,4]dioxin-5-yl-2,2,3,3-d4)amino)-7-((methyl-d3)amino)pyrazolo[1,5-a]pyrimidin-3-yl)-3-((1R,2S)-2-fluorocyclopropyl)urea]
< 1000 nM | [2H]C([2H])([2H])Nc1cc(Nc2cccc3c2OCCO3)nc2c(NC(=O)N[C@@H]3C[C@@H]3F)cnn12 [Compound 40, 1-(5-((2,3-dihydrobenzo[b][1,4]dioxin-5-yl)amino)-7-((methyl-d3)amino)pyrazolo[1,5-a]pyrimidin-3-yl)-3-((1R,2S)-2-fluorocyclopropyl)urea]
1000 to 10000 nM | CNc1cc(Nc2cc(C)cc3c2OCCO3)nc2c(NC(=O)NC3CC3)cnn12 [Compound 79, 1-cyclopropyl-3-(5-((7-methyl-2,3-dihydrobenzo[b][1,4]dioxin-5-yl)amino)-7-(methylamino)pyrazolo[1,5-a]pyrimidin-3-yl)urea]
< 1000 nM | CNc1cc(Nc2cccc3c2OCCO3)nc2c(NC(=O)NCC#N)cnn12 [Compound 102, 1-(cyanomethyl)-3-(5-((2,3-dihydrobenzo[b][1,4]dioxin-5-yl)amino)-7-(methylamino)pyrazolo[1,5-a]pyrimidin-3-yl)urea]
1000 to 10000 nM | CNc1cc(Nc2cc(F)cc3c2OCCO3)nc2c(NC(=O)N[C@@H]3C[C@H]3F)cnn12 [Compound 187, 1-(5-((7-fluoro-2,3-dihydrobenzo[b][1,4]dioxin-5-yl)amino)-7-(methylamino)pyrazolo[1,5-a]pyrimidin-3-yl)-3-((1R,2R)-2-fluorocyclopropyl)urea]
< 1000 nM | CNC(=O)Nc1cnn2c(NC)cc(Nc3cccc4c3OCO4)nc12 [Compound 153, 1-(5-(benzo[d][1,3]dioxol-4-ylamino)-7-(methylamino)pyrazolo[1,5-a]pyrimidin-3-yl)-3-methylurea]
